The target of assay [1] is T1, Atu0526 (Agrobacterium fabrum, UniProt Q7D199).
T1 construct: gene mclA; periplasmic domain (LBD, from 36th residue to 197th residue), His-tagged, pET30a
The assay can be described thus: isothermal titration calorimetry; thermo shift assay (Tm […] to […] °C). In kind it is binding. A general note: ITC needs no label: the signal is the heat of the interaction.

Assay [2] concerns the target T2, Atu0526 (Agrobacterium fabrum, UniProt Q7D199, R115A).
T2 construct: gene mclA; periplasmic domain (Atu0526 LBD R115A; LBD from 36th residue to 197th residue)
The assay is described as follows: isothermal titration calorimetry (no significant Tm shift in thermo shift assay). It counts as binding.

T1 sequence (Q7D199 entry or part of it): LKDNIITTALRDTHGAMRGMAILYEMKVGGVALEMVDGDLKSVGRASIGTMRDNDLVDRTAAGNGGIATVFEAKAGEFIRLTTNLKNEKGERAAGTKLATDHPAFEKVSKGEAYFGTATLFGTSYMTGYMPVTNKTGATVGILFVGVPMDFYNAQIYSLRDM
T2 sequence (Q7D199 entry or part of it R115A): as the sequence (Q7D199 entry or part of it) above

Usually Kd stands for the equilibrium constant for the complex coming apart. For the compound `O=CO` [formic acid], the Kd on Atu0526 [1] worked out at 172 ± 53.6 µM; on Atu0526 [2], 22.9 ± 5.36 µM.

These data come from PMC8698456, “Agrobacterium fabrum atu0526-Encoding Protein Is the Only Chemoreceptor That Regulates Chemoattraction toward the Broad Antibacterial Agent Formic Acid” (Biology, 2021).
